Experimental data: publication PMC4232510, “Identification of Functionally Important Residues of the Rat P2X4 Receptor by Alanine Scanning Mutagenesis of the Dorsal Fin and Left Flipper Domains” (PLoS ONE, 2014)
Positions count from the first letter of the chain named.

Columns and labels:
P2X1R N290A = test system: P2X1R N290A; parameters: method as in PMID 16371009; conditions: cited from earlier work
P2X3R S267A = test system: P2X3R S267A; parameters: method as in PMID 16120774; key: n.f.: non-functional mutants; ↑: mutant with significant increased EC50 in comparison to WT (values represent fold increase); ≈: close to WT receptor; D: affected time-constant of the desensitizing current response; conditions: cited from earlier work
rP2X4R V288A mutant = target: T1, rP2X4R V288A mutant (Rattus norvegicus, UniProt P51577, V288A); assay: whole-cell patch clamp, HEK293T cells expressing mutant; assay type: cell-based
T1 construct: expressed in transfected cells; host or cells: HEK293T
T1 sequence (P51577 1-388 V288A): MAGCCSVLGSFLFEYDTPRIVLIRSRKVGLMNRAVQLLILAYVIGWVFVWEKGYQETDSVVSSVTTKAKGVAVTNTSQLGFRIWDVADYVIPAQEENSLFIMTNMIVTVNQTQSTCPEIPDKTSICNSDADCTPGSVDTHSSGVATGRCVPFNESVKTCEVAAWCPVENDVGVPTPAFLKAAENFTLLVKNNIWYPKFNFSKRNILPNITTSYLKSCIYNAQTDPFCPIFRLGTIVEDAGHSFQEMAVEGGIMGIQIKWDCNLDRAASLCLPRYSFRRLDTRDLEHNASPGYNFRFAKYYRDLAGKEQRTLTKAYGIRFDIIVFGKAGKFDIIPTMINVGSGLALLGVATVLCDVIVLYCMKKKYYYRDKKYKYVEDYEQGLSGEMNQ

rP2X4R D283A mutant = target: T2, rP2X4R D283A mutant (Rattus norvegicus, UniProt P51577, D283A); assay: as above; assay type: cell-based
T2 construct: expressed in transfected cells; host or cells: HEK293T
T2 sequence (P51577 1-388 D283A): T1 sequence (P51577 1-388 V288A) with D283A, A288V

P2X2R N202A = test system: P2X2R N202A; parameters: method as in PMID 10940304; key: n.f.: non-functional mutants; ↑: mutant with significant increased EC50 in comparison to WT (values represent fold increase); ≈: close to WT receptor; D: affected time-constant of the desensitizing current response; conditions: cited from earlier work
[1] = 100 µM ATP 60 s, biexponential fit
[2] = contribution of τdes2, 100 µM ATP 60 s
[3] = decay after removal of 1 or 3 µM ATP, 3 µM IVM
[4] = naïve receptors, 2–5 s application
[5] = 3 µM IVM 4-6 min vs IVM-untreated

## Nc1ncnc2c1ncn2[C@@H]1O[C@H](COP(=O)(O)OP(=O)(O)OP(=O)(O)O)[C@@H](O)[C@H]1O [ATP]
P2X1R N290A
  fold increase of EC50 for ATP in comparison to WT: N290A: ↑>50x[45]
P2X3R S267A
  change in EC50 for ATP: S267A: ≈[59]
rP2X4R V288A mutant; [1]
  τdes1: 1.7 ± 0.3 s
  τdes2: 9.3 ± 1.7 s
rP2X4R V288A mutant; 100–1000 µM ATP
  Imax: 1.3 ± 0.2 nA
rP2X4R V288A mutant; ATP after 3 µM IVM 4-6 min
  Imax+IVM: 3.0 ± 0.7 nA
rP2X4R V288A mutant; [2]
  A2 /(A1+A2): 72 ± 8%
rP2X4R V288A mutant; [3]
  τoff +IVM: 19 ± 2.0 s
rP2X4R V288A mutant; [4]
  EC50: 5.7 ± 3.1 µM
rP2X4R V288A mutant; weighted, 100 µM ATP 60 s
  τdes: 7.5 ± 1.6 s
rP2X4R D283A mutant; [1]
  τdes1: 2.2 ± 0.6 s
  τdes2: 17.1 ± 5.8 s
rP2X4R D283A mutant; 100–1000 µM ATP
  Imax: 2.2 ± 0.3 nA
rP2X4R D283A mutant; ATP after 3 µM IVM 4-6 min
  Imax+IVM: 3.1 ± 0.3 nA
rP2X4R D283A mutant; [2]
  A2 /(A1+A2): 59 ± 10%
rP2X4R D283A mutant; [3]
  τoff +IVM: 16 ± 1.7 s
rP2X4R D283A mutant; [4]
  EC50: 7.3 ± 3.4 µM
rP2X4R D283A mutant; weighted, 100 µM ATP 60 s
  τdes: 9.1 ± 1.5 s
P2X2R N202A
  change in EC50 for ATP: N202A: n.f.[6]

## CC[C@H](C)[C@H]1O[C@]2(CC[C@@H]1C)C[C@@H]1C[C@@H](C/C=C(\C)[C@@H](O[C@H]3C[C@H](OC)[C@@H](O[C@H]4C[C@H](OC)[C@@H](O)[C@H](C)O4)[C@H](C)O3)[C@@H](C)/C=C/C=C3\CO[C@@H]4[C@H](O)C(C)=C[C@@H](C(=O)O1)[C@]34O)O2 [IVM, ivermectin]
rP2X4R V288A mutant; [5]
  Fold incr. Imax: 2.3 ± 0.3 fold
rP2X4R D283A mutant; [5]
  Fold incr. Imax: 1.4 ± 0.1 fold
